Source: PMC8119466, “A screen of FDA-approved drugs identifies inhibitors of protein tyrosine phosphatase 4A3 (PTP4A3 or PRL-3)” (Scientific Reports, 2021)
Counter-ions that a name gives are not always drawn. Like-named read-outs stand apart in the source and are kept apart here.

Experiments:
Assay type in all cases: biochemical
recombinant PRL-3 = biological target: T1, recombinant PRL-3 (Homo sapiens, UniProt O75365); experiment: In vitro phosphatase assay (DiFMUP hydrolysis), PRL-3; also: test concentration or dose not given here
T1 construct: 6xHis (N, cleaved yes); made in house; host or cells: E. coli One Shot BL21 Star

recombinant PRL-2 = biological target: T2, recombinant PRL-2 (Homo sapiens, UniProt Q12974); experiment: In vitro phosphatase assay (DiFMUP hydrolysis), PRL-2;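 also: PRL-2 activity read as DiFMUP hydrolysis after 20 min at room temperature with drug, enzyme first pre-reduced at 4 °C for 20 min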
T2 construct: 6xHis (N, cleaved yes); made in house; host or cells: E. coli One Shot BL21 Star
T2 sequence (Q12974 1-167): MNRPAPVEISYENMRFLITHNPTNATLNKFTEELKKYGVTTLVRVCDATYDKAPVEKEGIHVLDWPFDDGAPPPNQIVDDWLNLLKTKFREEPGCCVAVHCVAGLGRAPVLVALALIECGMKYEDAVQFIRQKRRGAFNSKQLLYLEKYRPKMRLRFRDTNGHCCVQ

recombinant PRL-1 = biological target: T3, recombinant PRL-1 (Homo sapiens, UniProt Q93096); experiment: In vitro phosphatase assay (DiFMUP hydrolysis), PRL-1; also: test concentration or dose not given here
T3 construct: 6xHis (N, cleaved yes); made in house; host or cells: E. coli One Shot BL21 Star
T3 sequence (Q93096 1-173): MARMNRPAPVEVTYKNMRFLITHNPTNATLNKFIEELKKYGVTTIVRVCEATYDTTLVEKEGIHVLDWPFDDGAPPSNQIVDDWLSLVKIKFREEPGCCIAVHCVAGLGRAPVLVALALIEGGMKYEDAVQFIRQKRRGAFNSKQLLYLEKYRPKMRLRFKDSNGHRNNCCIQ

[1] = FDA-approved drug screen, compared to DMSO
[2] = FDA-approved drug screen, activity compared to DMSO

T1 sequence (O75365 whole entry): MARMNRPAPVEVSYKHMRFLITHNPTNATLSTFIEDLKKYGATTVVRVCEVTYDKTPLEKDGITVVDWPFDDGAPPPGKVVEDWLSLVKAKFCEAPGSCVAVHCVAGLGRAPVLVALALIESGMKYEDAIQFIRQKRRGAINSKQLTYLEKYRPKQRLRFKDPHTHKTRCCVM

| SMILES | % Phosphatase Activity (compared to DMSO) PRL-3 (recombinant PRL-3; [1]) [%] | % Phosphatase Activity (compared to DMSO) PRL-2 (recombinant PRL-2; [1]) [%] | % Phosphatase Activity (compared to DMSO) PRL-1 (recombinant PRL-1; [1]) [%] | further results |
| --- | --- | --- | --- | --- |
| CN(CCOc1ccc(CC2SC(=O)NC2=O)cc1)c1ccccn1.Cl (stereo not drawn) [Rosiglitazone HCl] | 79 | 116 | 103 |  |
| CN1CCN(CCCN2c3ccccc3Sc3ccc(Cl)cc32)CC1.O=C(O)/C=C\C(=O)O.O=C(O)/C=C\C(=O)O [Prochlorperazine dimaleate salt] | 91 | 108 | 93 |  |
| CN(N=O)C(=O)N[C@H]1C(O)O[C@H](CO)[C@@H](O)[C@@H]1O (mixture of isomers) [Streptozotocin (STZ)] |  |  |  | % Phosphatase Activity (compared to DMSO) PRL-3 (recombinant PRL-3; [2]): 78%; % Phosphatase Activity (compared to DMSO) PRL-2 (recombinant PRL-2; [2]): 88%; % Phosphatase Activity (compared to DMSO) PRL-1 (recombinant PRL-1; [2]): 96% |
| COC(=O)C1=CCCN(C)C1 [Arecoline] | 84 | 131 | 98 |  |
| Cn1ncc(Cl)c1-c1cc(C(=O)N[C@H](CN)Cc2ccc(F)c(F)c2)oc1Cl [Uprosertib (GSK2141795)] |  |  |  | % Phosphatase Activity (compared to DMSO) PRL-3 (recombinant PRL-3; [2]): 103%; % Phosphatase Activity (compared to DMSO) PRL-2 (recombinant PRL-2; [2]): 95%; % Phosphatase Activity (compared to DMSO) PRL-1 (recombinant PRL-1; [2]): 95% |
| CN1CCC(=C2c3ccccc3CCn3c(C=O)cnc32)CC1 [Alcaftadine] | 85 | 89 | 98 |  |
| Oc1ccc(O)cc1 [Hydroquinone] |  |  |  | % Phosphatase Activity (compared to DMSO) PRL-3 (recombinant PRL-3): 70%; % Phosphatase Activity (compared to DMSO) PRL-2 (recombinant PRL-2): 91%; % Phosphatase Activity (compared to DMSO) PRL-1 (recombinant PRL-1): 90% |
| CCN1CCCC1CNC(=O)c1cc(S(N)(=O)=O)ccc1OC (stereo not drawn) [Sulpiride] |  |  |  | % Phosphatase Activity (compared to DMSO) PRL-3 (recombinant PRL-3; [2]): 70%; % Phosphatase Activity (compared to DMSO) PRL-2 (recombinant PRL-2; [2]): 92%; % Phosphatase Activity (compared to DMSO) PRL-1 (recombinant PRL-1; [2]): 89% |
| COC(=O)Nc1nc2cc(C(=O)c3ccc(F)cc3)ccc2[nH]1 [Flubendazole] | 92 | 103 | 91 |  |
| CN1CCCCC1CCN1c2ccccc2Sc2ccc([S+](C)[O-])cc21 (stereo not drawn) [Mesoridazine Besylate] |  |  |  | % Phosphatase Activity (compared to DMSO) PRL-3 (recombinant PRL-3): 99%; % Phosphatase Activity (compared to DMSO) PRL-2 (recombinant PRL-2): 95%; % Phosphatase Activity (compared to DMSO) PRL-1 (recombinant PRL-1): 98% |

More lines, main results first:

| % Phosphatase Activity (compared to DMSO) PRL-3 (recombinant PRL-3; [1]) [%] | % Phosphatase Activity (compared to DMSO) PRL-2 (recombinant PRL-2; [1]) [%] | % Phosphatase Activity (compared to DMSO) PRL-1 (recombinant PRL-1; [1]) [%] | SMILES | further results |
| --- | --- | --- | --- | --- |
| 79 | 113 | 106 | OC[C@H]1OC(O)[C@H](O)[C@@H](O)[C@@H]1O (stereo partly drawn) [Dextrose] |  |
| 76 | 88 | 97 | C[C@H]1[C@H](NC(=O)/C(=N\OC(C)(C)C(=O)O)c2csc(N)n2)C(=O)N1S(=O)(=O)O [Aztreonam] |  |
| 79 | 107 | 98 | CN1CC2c3ccccc3Oc3ccc(Cl)cc3C2C1 (stereo not drawn) [Asenapine] |  |
| 97 | 78 | 96 | CCNC1(C(N)=O)CCN(c2ncnc3c2nc(-c2ccccc2Cl)n3-c2ccc(Cl)cc2)CC1.Cl [Otenabant (CP-945598) HCl] |  |
| 74 | 91 | 82 | CCCCOc1ccc(OCCCN2CCOCC2)cc1 [Pramoxine HCl] |  |
| 83 | 90 | 98 | N#C/C(=C1/SC[C@@H](c2ccc(Cl)cc2Cl)S1)n1ccnc1 [Luliconazole] |  |
| 69 | 96 | 78 | CC(C)/N=c1\cc2n(-c3ccc(Cl)cc3)c3ccccc3nc-2cc1Nc1ccc(Cl)cc1 [Clofazimine] |  |
